These results are taken from article PMC6974524 (Frontiers in Microbiology, 2020).

Converted amounts (≈) assume the structure as drawn. “And” between values parts separate entries of the source, which are not always exact repeats. Identical values can stand only once. “Also recorded” adds a separate entry of the source. Like-named read-outs stand apart in the source and are kept apart here.

One data set addresses DdlA (Mycobacterium tuberculosis, UniProt P9WP31). In kind it is biochemical. Particulars: for Kcat: Vmax divided by enzyme concentration. From the text:
The activity of DdlA was monitored by coupling with pyruvate kinase (PK) and lactate dehydrogenase (LDH; Sigma-Aldrich) to detect the release of ADP. […] The assay system was monitored via a Perkin Elmer EnSpire® 2300 Multimode Plate Reader (PerkinElmer, MA, United States) by detecting decreases in NADH.
The calibration curve of the ultraviolet absorption of NADH at 340 nm to its concentrations was fabricated before studying the enzymatic kinetics of DdlA. The kinetic parameters of DldA were determined using serial twofold dilutions of one substrate (from 1 mM to 31.25 μM), while the other substrate was held constant at 1 mM. Km and Vmax values were calculated using non-linear regression of the Michaelis-Menten model in GraphPad Prism 5.0 (GraphPad Software, Inc., San Diego, CA, United States). Kcat was calculated based on the molecular weight of DdlA (42 kDa).

The target in a further data set is Mtb DdlA (Mycobacterium tuberculosis, UniProt P9WP31). Nature of the data set: DdlA inhibition, PK/LDH-coupled assay detecting ADP release (NADH decrease). In kind it is biochemical.
In data set [1] the test system is Mtb H37Rv. Nature of the data set: microbe, parasite or virus in culture. In kind it is cell-based, Mycobacterium tuberculosis. The note with it: for MIC: Mycobacterium tuberculosis, 336 h.
Another data set has as its system clinical Mtb strains. As to the kind of experiment: microbe, parasite or virus in culture. It is filed as cell-based, Mycobacterium tuberculosis. The note with it: for MIC: Mycobacterium tuberculosis.
The subject of data set [2] is Mtb H37Rv. Nature of the data set: Mouse model of TB, pulmonary bacterial load. It is filed as in vivo, Balb/c mice. The note with it: 25 mg/kg by gavage, 15 administrations (five times per week); vehicle 5.58. From the text: Specific pathogen-free (SPF) male Balb/c mice were purchased from the Institute of Laboratory Animal Sciences at the Chinese Academy of Medical Sciences and Peking Union Medical College. All animal experiments were supervised and approved by the Institutional Animal Care and Use Committee of the Institute of Medicinal Biotechnology. Twenty-six mice (6–8 weeks old, 18–20 g) were infected with Mtb H37Rv (about 100 CFU) via the 099C A4224 Inhalation Exposure System (Glas-col, Terre Haute, IN, United States). At 15 days after inoculum, two mice were anesthetized and decapitated to confirm the success of infection. DCS, INH, IMB-0283, and vehicle (0.5% CMC-Na) were administered through a gavage route (six mice per group). All chemicals were dosed at 25 mg/kg. Mice were sacrificed after 15 administrations (five times per week) to quantify pulmonary bacterial loads via counting CFUs.

For data set [3], the system named is HepG2 cells.
Data set [4] has as its system Vero green-monkey kidney cells. As to the kind of experiment: Cytotoxicity assay (MTT), Vero. Particulars: Vero TC50 relative to H37Rv MIC.
Data set [5] relates to HepG2 cells. As to the kind of experiment: Cytotoxicity assay (MTT), HepG2. Particulars: for SI: HepG2 TC50 relative to H37Rv MIC.
For data set [6], the system named is Mtb H37Rv. Nature of the data set: Morphology of Mtb by scanning electron microscopy. It is filed as cell-based, Mycobacterium tuberculosis. The note with it: 0.35 μg/mL.
Data set [7] concerns Vero green-monkey kidney cells. Particulars: 2 days.
A further data set relates to C[C@@H](N)C(=O)O. Nature of the data set: purified protein, by the assay type. Particulars: pH 8.0; 37.0 °C.
[8] abbreviates: substrate of DdlA, other substrate at 1 mM.
The mark [9] stands for this setting: Dixon plot, Figure 4 panels A, C, substrate ATP inferred, read-out: Ki for DdlA (ATP) (converted).
[10] abbreviates: Dixon plot, competing substrate ATP, read-out: Ki for DdlA (ATP) (converted).
Setting [11] is: Mtb H37Rv, 2 weeks at 37°C, read-out: MIC.

Chain of DdlA (P9WP31 whole entry, looked up): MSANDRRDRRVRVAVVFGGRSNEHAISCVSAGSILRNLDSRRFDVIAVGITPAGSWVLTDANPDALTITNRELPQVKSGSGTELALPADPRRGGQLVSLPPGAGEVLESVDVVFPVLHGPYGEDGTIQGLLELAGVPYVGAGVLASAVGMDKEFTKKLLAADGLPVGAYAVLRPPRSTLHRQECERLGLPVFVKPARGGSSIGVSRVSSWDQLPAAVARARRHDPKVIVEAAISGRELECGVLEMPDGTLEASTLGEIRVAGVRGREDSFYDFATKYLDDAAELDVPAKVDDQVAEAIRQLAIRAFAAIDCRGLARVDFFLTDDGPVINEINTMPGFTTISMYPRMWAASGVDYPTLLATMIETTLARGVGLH
Chain of Mtb DdlA (P9WP31 whole entry, looked up): as above

Regarding `Nc1ncnc2c1ncn2[C@@H]1O[C@H](COP(=O)(O)OP(=O)(O)OP(=O)(O)O)[C@@H](O)[C@H]1O` [ATP], the Kcat at DdlA was 405.8 min^–1 and 383.00 ± 14.14 min^–1. For the same compound, on DdlA (setting [8]), the Km was determined as 360 ± 30.5 µM; the Vmax is 20.29 μMmin^–1 and 19.15 ± 0.705 μMmin^–1.
`C[C@@H](N)C(=O)O` [D-Ala, D-alanine] gave a Kcat at DdlA of 568.79 ± 48.93 min^–1. Besides, the Vmax at DdlA (setting [8]) is 28.44 ± 2.444 μMmin^–1.
In the case of `N[C@@H]1CON=C1O` [DCS, D-cycloserine, reference compound], the Ki was 106 µM at Mtb DdlA (setting [9]), 107 µM on Mtb DdlA (setting [10]) and 182 µM at Mtb DdlA (Ki for DdlA (D-Ala)). Moreover, the MIC in the data set with Mtb H37Rv [1] (setting [11]) is 16 µg/mL (≈ 157 µM). Also, the “MICs to several clinical strains” value in the data set with clinical Mtb strains (range over clinical strains) is recorded as “did not show any inhibitory effect”. Besides, the “Mtb load in mouse lungs” value in the data set with Mtb H37Rv [2] is “did not yield any such treatment efficacy; also recorded: did not yield any antibacterial activity; also recorded: showed no antibacterial activity”. Besides, the SI index result in the data set with HepG2 cells [3] (human (HepG2) and green monkey (Vero)) was “about 80”. Further, the figures for the SI (in data set [4]; with HepG2 cells [5]) were 127.75 and 86.25, respectively.
Consider `OC1(c2ccc(OC(F)F)cc2)C[N+](c2ccccc2)=C2CCCCN21` (centres unmarked) [IMB-0283], for which the Ki at Mtb DdlA (setting [9]) is 5.43 µM; at Mtb DdlA (setting [10]), 4.44 µM; at Mtb DdlA (Ki for DdlA (D-Ala)) it was 32.6 µM and 39.9 µM. Besides, the Inhibitory mode entry on Mtb DdlA (Lineweaver-Burk and Dixon plots) is reported as “competed with both substrates of DdlA”. Moreover, the IC50 is 6.16 µM against Mtb DdlA (mean of n = 3) and 7.62 µM against Mtb DdlA (printed in Figure 3B). The MIC was 0.5 µg/mL in the data set on Mtb H37Rv [1] (setting [11]); 0.5 to 4 µg/mL in the data set with clinical Mtb strains (range over clinical strains, read-out: MICs to several clinical strains); 0.5 µg/mL with clinical Mtb strains (strain FJ05060, S to INH, RMP, EMB, STR, CPM, KAN, OFX, read-out: MIC); 2 µg/mL in the data set with clinical Mtb strains (strain FJ05120, R to INH, RMP, read-out: MIC); 1 µg/mL in the data set with clinical Mtb strains (strain FJ05189, R to INH, RMP, read-out: MIC); 4 µg/mL in the data set with clinical Mtb strains (strain FJ05195, R to INH, RMP, EMB, STR, KAN, OFX, S to CPM, read-out: MIC). Besides, the MIC stood at 0.5 µg/mL in the data set on clinical Mtb strains (strain FJ05349, S to INH, RMP, EMB, STR, CPM, KAN, OFX, read-out: MIC) and 4 µg/mL in the data set on clinical Mtb strains (strain xz, R to INH, RMP, STR, CPM, OFX, S to EMB, KAN, read-out: MIC). In addition, the “Morphology of Mtb” value in the data set on Mtb H37Rv [6] (12 h) was “typical long-rod morphology”; in the data set with Mtb H37Rv [6] (7 days) it was “shrunken, shorter, and fragmented”. In addition, the “Mtb load in mouse lungs” value in the data set with Mtb H37Rv [2] is on record as 4.40 log CFU/mL. In addition, the TC50 stood at 115.4 µg/mL with HepG2 cells [3] (human, 2 days) and 249.8 µg/mL in [7]. Also, the SI in data set [4] is 499.6; with HepG2 cells [5] it was 230.8. Also, in the data set on HepG2 cells [5] (cell line not specified (HepG2 and Vero)), the SI index entry was “greater than 200”.
On to `NNC(=O)c1ccncc1` [INH, isoniazid], for which the “Reduction of MIC when combined with IMB-0283” value in the data set with Mtb H37Rv [1] (H37Rv, IMB-0283 at 0.125 μg/mL) is on record as “eightfold”. Moreover, the “MIC when combined with IMB-0283” value in the data set on Mtb H37Rv [1] (H37Rv, IMB-0283 at 0.125 μg/mL (0.25 × MIC)) amounted to 0.016 µg/mL. Besides, the MIC in the data set with Mtb H37Rv [1] (setting [11]) stood at 0.125 µg/mL (≈ 0.911 µM). The “Mtb load in mouse lungs” value in the data set on Mtb H37Rv [2] is reported as 3.29 log CFU/mL.
Take `CO[C@H]1/C=C/O[C@@]2(C)Oc3c(C)c(O)c4c(O)c(c(/C=N/N5CCN(C)CC5)c(O)c4c3C2=O)NC(=O)/C(C)=C\C=C\[C@H](C)[C@H](O)[C@@H](C)[C@@H](O)[C@@H](C)[C@H](OC(C)=O)[C@@H]1C` [RMP, rifampin]: in the data set with Mtb H37Rv [1], the “MIC when combined with IMB-0283” value was 0.016 µg/mL. The MIC against Mtb H37Rv [1] (H37RV) is 0.063 µg/mL (≈ 0.0766 µM).
Take (Mycobacterium tuberculosis H37Rv): in the data set on C[C@@H](N)C(=O)O, the Vmax is 28.4 µM/min and the kcat was 9.48 s⁻¹.
